Measurements as given in ChEMBL document CHEMBL1250451, “Mechanistic insights into a Ca2+-dependent family of alpha-mannosidases in a human gut symbiont” (Nat Chem Biol, 2010).

What was measured:
Format in all cases: protein assay
[1] = biological target: T1, Alpha-1,2-mannosidase (BT_2199) (Bacteroides thetaiotaomicron) (UniProt Q8A5N9); experiment: Activity of Bacteroides thetaiotaomicron GH92 alpha-mannosidase 2199 assessed as recovery of enzyme activity at 1 mM in presence of 7 mM Ti(3+) ions and in presence of 5 mM EGTA in 100 mM pH 7 MOPS buffer relative to enzyme activity in presence of calcium
T1 sequence (whole entry): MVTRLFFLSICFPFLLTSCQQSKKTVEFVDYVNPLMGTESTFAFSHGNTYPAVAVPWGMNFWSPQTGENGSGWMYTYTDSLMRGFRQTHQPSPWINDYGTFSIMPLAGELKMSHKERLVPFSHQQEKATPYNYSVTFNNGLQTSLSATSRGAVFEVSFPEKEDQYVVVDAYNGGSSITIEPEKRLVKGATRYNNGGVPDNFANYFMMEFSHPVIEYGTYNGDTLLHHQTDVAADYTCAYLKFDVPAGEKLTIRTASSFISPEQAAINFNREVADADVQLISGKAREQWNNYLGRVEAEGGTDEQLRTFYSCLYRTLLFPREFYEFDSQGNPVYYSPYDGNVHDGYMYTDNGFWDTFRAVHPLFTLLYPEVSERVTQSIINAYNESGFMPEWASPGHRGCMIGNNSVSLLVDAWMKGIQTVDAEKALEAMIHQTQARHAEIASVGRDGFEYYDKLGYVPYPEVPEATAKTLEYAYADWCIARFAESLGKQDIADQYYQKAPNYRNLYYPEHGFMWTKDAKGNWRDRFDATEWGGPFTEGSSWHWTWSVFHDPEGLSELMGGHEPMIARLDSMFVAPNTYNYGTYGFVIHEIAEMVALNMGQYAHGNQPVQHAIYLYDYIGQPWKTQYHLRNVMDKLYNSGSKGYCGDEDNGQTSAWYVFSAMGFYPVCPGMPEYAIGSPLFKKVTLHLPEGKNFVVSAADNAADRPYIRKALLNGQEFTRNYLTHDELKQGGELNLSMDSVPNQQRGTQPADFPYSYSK

[2] = biological target: T1, Alpha-1,2-mannosidase (BT_2199) (Bacteroides thetaiotaomicron); experiment: Activity of Bacteroides thetaiotaomicron GH92 alpha-mannosidase 2199 assessed as recovery of enzyme activity at 1 mM in presence of 7 mM Sr(2+) ions and in presence of 5 mM EGTA in 100 mM pH 7 MOPS buffer relative to enzyme activity in presence of calcium
[3] = biological target: T2, Alpha-1,2-mannosidase (BT_3990) (Bacteroides thetaiotaomicron) (UniProt Q8A0N1); experiment: Activity of Bacteroides thetaiotaomicron GH92 alpha-mannosidase 3990 assessed as recovery of enzyme activity at 1 mM in presence of 7 mM Be(2+) ions and in presence of 5 mM EGTA in 100 mM pH 7 MOPS buffer relative to enzyme activity in presence of calcium
T2 sequence (whole entry): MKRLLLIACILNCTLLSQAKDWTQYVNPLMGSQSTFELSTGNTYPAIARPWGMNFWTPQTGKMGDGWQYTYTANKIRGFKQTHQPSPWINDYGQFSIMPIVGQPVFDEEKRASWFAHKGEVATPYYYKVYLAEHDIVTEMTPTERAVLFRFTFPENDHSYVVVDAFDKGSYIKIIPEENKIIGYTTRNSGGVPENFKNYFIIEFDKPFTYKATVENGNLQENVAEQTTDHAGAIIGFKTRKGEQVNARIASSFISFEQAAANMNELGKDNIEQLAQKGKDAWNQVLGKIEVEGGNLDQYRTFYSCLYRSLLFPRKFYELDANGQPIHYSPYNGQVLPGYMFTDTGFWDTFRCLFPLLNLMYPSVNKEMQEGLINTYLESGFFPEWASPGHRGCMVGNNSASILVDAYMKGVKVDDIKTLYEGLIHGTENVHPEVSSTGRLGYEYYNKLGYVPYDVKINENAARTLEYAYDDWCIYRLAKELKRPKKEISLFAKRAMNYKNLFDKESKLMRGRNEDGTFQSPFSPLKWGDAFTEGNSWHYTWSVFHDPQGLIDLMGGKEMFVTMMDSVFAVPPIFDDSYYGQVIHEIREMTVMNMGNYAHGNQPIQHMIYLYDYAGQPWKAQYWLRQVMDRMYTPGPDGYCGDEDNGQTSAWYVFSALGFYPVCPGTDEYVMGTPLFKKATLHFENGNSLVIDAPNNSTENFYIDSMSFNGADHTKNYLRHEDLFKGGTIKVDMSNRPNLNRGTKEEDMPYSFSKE

[4] = biological target: T1, Alpha-1,2-mannosidase (BT_2199) (Bacteroides thetaiotaomicron); experiment: Activity of Bacteroides thetaiotaomicron GH92 alpha-mannosidase 2199 assessed as recovery of enzyme activity at 1 mM in presence of 7 mM Ca(2+) ions and in presence of 5 mM EGTA in 100 mM pH 7 MOPS buffer relative to enzyme activity in presence of calcium
[5] = biological target: T2, Alpha-1,2-mannosidase (BT_3990) (Bacteroides thetaiotaomicron); experiment: Activity of Bacteroides thetaiotaomicron GH92 alpha-mannosidase 3990 assessed as recovery of enzyme activity at 1 mM in presence of 7 mM Sr(2+) ions and in presence of 5 mM EDTA in 100 mM pH 7 MOPS buffer relative to enzyme activity in presence of calcium
[6] = biological target: T2, Alpha-1,2-mannosidase (BT_3990) (Bacteroides thetaiotaomicron); experiment: Activity of Bacteroides thetaiotaomicron GH92 alpha-mannosidase 3990 assessed as recovery of enzyme activity at 1 mM in presence of 7 mM Ti(3+) ions and in presence of 5 mM EDTA in 100 mM pH 7 MOPS buffer relative to enzyme activity in presence of calcium
[7] = biological target: T1, Alpha-1,2-mannosidase (BT_2199) (Bacteroides thetaiotaomicron); experiment: Activity of Bacteroides thetaiotaomicron GH92 alpha-mannosidase 2199 assessed as recovery of enzyme activity at 1 mM in presence of 7 mM Ba(2+) ions and in presence of 5 mM EGTA in 100 mM pH 7 MOPS buffer relative to enzyme activity in presence of calcium
[8] = biological target: T2, Alpha-1,2-mannosidase (BT_3990) (Bacteroides thetaiotaomicron); experiment: Activity of Bacteroides thetaiotaomicron GH92 alpha-mannosidase 3990 assessed as recovery of enzyme activity at 1 mM in presence of 7 mM Co(2+) ions and in presence of 5 mM EDTA in 100 mM pH 7 MOPS buffer relative to enzyme activity in presence of calcium
[9] = biological target: T2, Alpha-1,2-mannosidase (BT_3990) (Bacteroides thetaiotaomicron); experiment: Activity of Bacteroides thetaiotaomicron GH92 alpha-mannosidase 3990 assessed as recovery of enzyme activity at 1 mM in presence of 7 mM Sr(2+) ions and in presence of 5 mM EGTA in 100 mM pH 7 MOPS buffer relative to enzyme activity in presence of calcium
[10] = biological target: T2, Alpha-1,2-mannosidase (BT_3990) (Bacteroides thetaiotaomicron); experiment: Activity of Bacteroides thetaiotaomicron GH92 alpha-mannosidase 3990 assessed as recovery of enzyme activity at 1 mM in presence of 7 mM Mg(2+) ions and in presence of 5 mM EDTA in 100 mM pH 7 MOPS buffer relative to enzyme activity in presence of calcium
[11] = biological target: T2, Alpha-1,2-mannosidase (BT_3990) (Bacteroides thetaiotaomicron); experiment: Activity of Bacteroides thetaiotaomicron GH92 alpha-mannosidase 3990 assessed as recovery of enzyme activity at 1 mM in presence of 7 mM Co(2+) ions and in presence of 5 mM EGTA in 100 mM pH 7 MOPS buffer relative to enzyme activity in presence of calcium

Activity [1]: 0% | Activity [2]: 30% | Activity [3]: 0% | Activity [4]: 100% | Activity [5]: 14% | Activity [6]: 0% | Activity [7]: 0% | Activity [8]: 12% | Activity [9]: 12% | Activity [10]: 0% | Activity [11]: 11%
Compound: O=[N+]([O-])c1ccc(O[C@H]2O[C@H](CO)[C@@H](O)[C@H](O)[C@@H]2O)cc1
